Seven substances from patent US3951949A, “Sulfates of hydroxyethyl starch” (Ajinomoto Co., Inc., priority 1973, dated 1976) can be followed below.

In one experiment the target is bovine serum albumin (Bos taurus, UniProt P02769). In words: Inhibition of heat denaturation of serum protein (turbidity). To be noted: 0.5 (W/V) % bovine serum albumin, test substance 3 × 10^-3 M per repeating unit, 1/15M phosphate buffer PH=5.4, 67°C 3 minutes. How it is done:
Inhibition of heat denaturation of serum proteins is widely used for screening potential pharmaceutical agents for anti-inflammatory activity. The test is described in "Inhibition of Heat Denaturation of Serum Protein," Y. Mizushima, Arch. Int. Pharmacodyn.
In the test, the sodium salt of hydroxyethyl starch sulfate was dissolved in 1/15M phosphate suffer solution (PH=5.4) and to the solution the same phosphate buffer solution containing 1% bovine serum albumin was added in a 1:1 volume ratio. The solution was stirred at 25°C for 20 minutes and then stirred at 67°C for 3 minutes and cooled. The turbidity of the test solutions thus obtained was compared with that of a solution obtained by adding 1/15M phosphate buffer solution containing 1% bovine serum albumin to 1/15M phosphate buffer solution in a 1:1 volume ratio, and the inhibition degree of heat denaturation were calculated.

The next experiment has as its system hyaluronidase. The experiment can be described thus: Hyaluronidase inhibition activity. It is filed as biochemical. Particulars: 0.16% in phosphate buffer (PH=7.0) 0.25 ml; hyaluronic acid phosphate buffer (PH=5.3) 0.5 ml; bovine serum albumin buffer (PH=3.75) 5.0 ml; 38°C, 45 minutes. How it is done: Hyaluronidase inhibition activities of sulfate of hydroxyethyl starch were tested.
*0.16% Sulfate of hydroxyethyl starch phosphate buffer (PH=7.0) 0.25 ml;
hyaluronic acid phosphate buffer (PH=5.3) 0.5 ml; Bovine serum albumin
phosphate buffer (PH=3.75) 5.0 ml 38°C, 45 minutes.

The next experiment has as its system pepsin. The experiment can be described thus: Pepsin inhibition activity. It counts as biochemical. Particulars: 0.30% aqueous solution (PH=1.8) 1 ml; 20 μg pepsin 1 ml; 1.5% bovine hemoglobin 1 ml; 30°C, 10 min. How it is done: The pepsin inhibition activity of the products of the invention was tested. The anti-ulcer activity of the compounds of the invention is evident.
*0.30% Sulfate of hydroxyethyl starch aqueous solution (PH=1.8) 1 ml; 20
μ g pepsin aqueous solution (PH=1.8) 1 ml; 1.5% Bovine hemoglobin

bovine serum albumin, sequence (P02769 25-607): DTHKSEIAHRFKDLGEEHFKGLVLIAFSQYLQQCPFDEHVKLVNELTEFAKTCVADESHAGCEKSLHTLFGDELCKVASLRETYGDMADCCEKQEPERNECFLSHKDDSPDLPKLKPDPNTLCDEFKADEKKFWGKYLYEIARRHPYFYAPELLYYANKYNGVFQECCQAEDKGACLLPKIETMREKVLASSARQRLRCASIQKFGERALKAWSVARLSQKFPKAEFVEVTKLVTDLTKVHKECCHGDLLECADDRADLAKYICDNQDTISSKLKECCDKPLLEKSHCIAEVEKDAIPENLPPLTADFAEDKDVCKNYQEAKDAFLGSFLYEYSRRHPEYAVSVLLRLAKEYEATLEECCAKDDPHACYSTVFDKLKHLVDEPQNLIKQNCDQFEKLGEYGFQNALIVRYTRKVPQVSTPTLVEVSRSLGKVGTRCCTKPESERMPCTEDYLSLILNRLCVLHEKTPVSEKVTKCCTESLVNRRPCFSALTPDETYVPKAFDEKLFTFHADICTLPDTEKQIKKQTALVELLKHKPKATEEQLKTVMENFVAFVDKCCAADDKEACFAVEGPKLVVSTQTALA

For the substance “Sodium Salt of Sulfate of Hydroxyethyl Starch [Example 8.2]”, at bovine serum albumin (3 min, 3000 µM), the “Inhibition Ratios of Heat Denaturation of Bovine Serum Albumin” value (“Inhibition Ratios” below) is recorded as 98.1%.
On to “sodium salts of sulfate of hydroxyethyl starch [Ex. 6]”, for which, in the experiment on hyaluronidase, the “Inhibition Ratio (hyaluronidase)” value was 96%. Moreover, in the experiment on pepsin, the “Pepsin Inhibition Ratio” value came out at 83%. Moreover, the “Inhibition Ratios” value at bovine serum albumin is 93.4%.
For the substance “Sodium Salt of Sulfate of Hydroxyethyl Starch [Example 1.6]”, the “Inhibition Ratios” value at bovine serum albumin (3 min, 3000 µM) was 97.9%.
As to “Sodium Salt of Sulfate of Hydroxyethyl Starch [Example 11.1]”, the “Inhibition Ratios” value on bovine serum albumin (3 min, 3000 µM) was 97.6%.
Consider “Hydroxyethyl Starch [reference compound]”, for which, in the experiment on hyaluronidase, the “Inhibition Ratio (hyaluronidase)” value is given as 10%. Further, the “Pepsin Inhibition Ratio” value in the experiment on pepsin was 1%.
With “Sodium Salt of Sulfate of Hydroxyethyl Starch [Example 14.5]”, the “Inhibition Ratios” value on bovine serum albumin (3 min, 3000 µM) is 98.8%.
Same read-out and setting: next, “Sodium Salt of Sulfate of Hydroxyethyl Starch [Example 6.3]”: 98.1%.
